What was measured:
[1] = molecular target: T1, CGRP receptor (Homo sapiens, UniProt O60894+Q16602); test: CGRP radioligand binding assay ([125I]-CGRP displacement, SK-N-MC homogenate); design: endogenous in cells; host or cells: SK-N-MC cells (homogenate/membrane pellet); conditions: displacement of [125I]-CGRP, room temperature 2 h
How it was run: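 SK-N-MC cell homogenate (5 μg/well) was incubated 2 h at room temperature with [125I]-CGRP (diluted to 60 pM before addition) in 50 mM Tris-Cl pH 7.5, 5 mM MgCl2, 0.005% Triton X-100 plus protease inhibitors. Bound radioactivity was collected by filtration; 1 μM beta-CGRP defined non-specific binding. IC50 is 50% radioligand displacement.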

[2] = molecular target: T1, CGRP receptor; test: Cyclic AMP functional antagonism assay in SK-N-MC cells; format: cell-based; design: SK—N-MC cells that endogenously express the human CGRP receptor; endogenous in cells; host or cells: SK-N-MC cells; conditions: inhibition of 0.3 nM CGRP-induced cyclic AMP formation, 15 min pre-incubation, read-out: cAMP Function IC50
Method: Cyclic AMP Functional Antagonism Assay. Antagonism of the compounds of invention was determined by measuring the formation of cyclic AMP (adenosine 3′5′-cyclic monophosphate) in SK—N-MC cells that endogenously express the human CGRP receptor. CGRP receptor complex is coupled with Gs protein and CGRP binding to this complex leads to the cyclic AMP production via Gs—dependent activation of an adenylate cyclase (Juaneda C et al., TiPS, 2000; 21:432-438; incorporated by reference herein). Consequently, CGRP receptor antagonists inhibit CGRP—induced cyclic AMP formation in SK—N-MC cells (Doods H et al., Br J Pharmacol, 2000; 129(3):420-423); incorporated by reference herein). For cyclic AMP measurements SK—N-MC cells were incubated with 0.3 nM CGRP alone or in the presence of various concentrations of the compounds of invention for 30 min at room temperature. Compounds of invention were pre-incubated with SK—N-MC cells for 15 min before the addition of CGRP to allow receptor occupancy (Edvinsson et al., Eur J Pharmacol, 2001, 415:39-44; incorporated by reference herein). Cyclic AMP was extracted using the lysis reagent and its concentration was determined by radioimmunoassay using RPA559 cAMP SPA Direct Screening Assay Kit (Amersham Pharmacia Biotech). IC50 values were calculated using Excel fit.

T1 sequence (Q16602 23-461): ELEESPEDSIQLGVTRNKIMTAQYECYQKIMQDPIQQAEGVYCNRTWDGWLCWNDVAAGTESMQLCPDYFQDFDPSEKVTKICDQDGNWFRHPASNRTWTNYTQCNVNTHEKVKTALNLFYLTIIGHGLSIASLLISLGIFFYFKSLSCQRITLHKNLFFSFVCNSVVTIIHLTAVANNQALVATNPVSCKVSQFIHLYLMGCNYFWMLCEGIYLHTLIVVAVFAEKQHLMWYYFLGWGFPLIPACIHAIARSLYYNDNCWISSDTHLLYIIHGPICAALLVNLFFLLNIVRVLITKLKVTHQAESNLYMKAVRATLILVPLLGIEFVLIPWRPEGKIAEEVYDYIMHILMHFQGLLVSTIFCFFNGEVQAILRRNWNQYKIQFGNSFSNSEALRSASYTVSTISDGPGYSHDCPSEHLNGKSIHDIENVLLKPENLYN
T1 sequence (O60894 27-148): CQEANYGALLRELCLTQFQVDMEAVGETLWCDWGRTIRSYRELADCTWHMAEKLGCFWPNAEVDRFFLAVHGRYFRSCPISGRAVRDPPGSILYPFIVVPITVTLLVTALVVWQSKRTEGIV

## CC(C)(C)CN1Cc2c(ccc3[nH]ncc23)C[C@@H](CC(=O)N2CCC(N3Cc4cccc(F)c4NC3=O)CC2)C1=O [Example 39, (S)-7-(2-(4-(8-Fluoro-2-oxo-1,2-dihydroquinazolin-3(4H)-yl)piperidin-1-yl)-2-oxoethyl)-9-neopentyl-6,7,9,10-tetrahydroazepino[3,4-e]indazol-8(3H)-one]
[1]
  IC50: 10 to 100 nM
[2]
  IC50: 10 to 100 nM

## CC(C)(C)CN1Cc2c(cc(Cl)c3[nH]ncc23)C[C@@H](CC(=O)N2CCC(N3Cc4cccc(F)c4NC3=O)CC2)C1=O [Example 40, (S)-4-Chloro-7-(2-(4-(8-fluoro-2-oxo-1,2-dihydroquinazolin-3(4H)-yl)piperidin-1-yl)-2-oxoethyl)-9-neopentyl-6,7,9,10-tetrahydroazepino[3,4-e]indazol-8(3H)-one]
[1]
  IC50: 0.1 to 10 nM
[2]
  IC50: 0.1 to 10 nM

## CC(C)(C)CN1Cc2c(cc(Cl)c3[nH]ncc23)C[C@@H](CC(=O)N2CCC(N3Cc4ccccc4CC3=O)CC2)C1=O [Example 41, (S)-4-Chloro-9-neopentyl-7-(2-oxo-2-(4-(3-oxo-3,4-dihydroisoquinolin-2(1H)-yl)piperidin-1-yl)ethyl)-6,7,9,10-tetrahydroazepino[3,4-e]indazol-8(3H)-one]
[1]
  IC50: 0.1 to 10 nM
[2]
  IC50: 0.1 to 10 nM

## CC(C)(C)CN1Cc2c(ccc3[nH]ncc23)C[C@@H](CC(=O)N2CCC(c3cc4ccccc4[nH]c3=O)CC2)C1=O [Example 42, (S)-9-Neopentyl-7-(2-oxo-2-(4-(2-oxo-1,2-dihydroquinolin-3-yl)piperidin-1-yl)ethyl)-6,7,9,10-tetrahydroazepino[3,4-e]indazol-8(3H)-one]
[1]
  IC50: 10 to 100 nM
[2]
  IC50: 10 to 100 nM

## CC(C)(C)CN1Cc2c(cc(Cl)c3[nH]ncc23)C[C@@H](CC(=O)N2CCC(c3cc4ccccc4[nH]c3=O)CC2)C1=O [Example 43, (S)-4-Chloro-9-neopentyl-7-(2-oxo-2-(4-(2-oxo-1,2-dihydroquinolin-3-yl)piperidin-1-yl)ethyl)-6,7,9,10-tetrahydroazepino[3,4-e]indazol-8(3H)-one]
[1]
  IC50: 0.1 to 10 nM
[2]
  IC50: 0.1 to 10 nM

## CC(C)(C)CN1Cc2c(cc(Cl)c3[nH]ncc23)C[C@@H](CC(=O)N2CCC(n3cc(-c4ccccc4)[nH]c3=O)CC2)C1=O [Example 44, (S)-4-Chloro-9-neopentyl-7-(2-oxo-2-(4-(2-oxo-4-phenyl-2,3-dihydroimidazol-1-yl)piperidin-1-yl)ethyl)-6,7,9,10-tetrahydroazepino[3,4-e]indazol-8(3H)-one]
[1]
  IC50: 0.1 to 10 nM
[2]
  IC50: 0.1 to 10 nM

## CC(C)(C)CN1Cc2c(cc(Cl)c3[nH]ncc23)C[C@@H](CC(=O)N2CCC(n3cc(-c4ccccn4)[nH]c3=O)CC2)C1=O [Example 45, (S)-4-Chloro-9-neopentyl-7-(2-oxo-2-(4-(2-oxo-4-(pyridin-2-yl)-2,3-dihydroimidazol-1-yl)piperidin-1-yl)ethyl)-6,7,9,10-tetrahydroazepino[3,4-e]indazol-8(3H)-one]
[1]
  IC50: 0.1 to 10 nM
[2]
  IC50: 0.1 to 10 nM

## CC(C)(C)CN1Cc2c(cc(Cl)c3[nH]ncc23)C[C@@H](CC(=O)N2CCC3(CC2)NC(=O)Nc2ccccc23)C1=O [Example 46]
[1]
  IC50: 0.1 to 10 nM
[2]
  IC50: 0.1 to 10 nM

## CC(C)(C)CN1Cc2c(cc(Cl)c3[nH]ncc23)C[C@@H](CC(=O)N2CCC(c3cc4cccc(F)c4[nH]c3=O)CC2)C1=O [Example 47, (S)-4-Chloro-7-(2-(4-(8-fluoro-2-oxo-1,2-dihydroquinolin-3-yl)piperidin-1-yl)-2-oxoethyl)-9-neopentyl-6,7,9,10-tetrahydroazepino[3,4-e]indazol-8(3H)-one]
[1]
  IC50: 10 to 100 nM
[2]
  IC50: 10 to 100 nM

## O=C(C[C@@H]1Cc2cc(Cl)c3[nH]ncc3c2CN(Cc2ccncc2)C1=O)N1CCC(N2Cc3ccccc3NC2=O)CC1 [Example 49, (S)-4-Chloro-7-(2-oxo-2-(4-(2-oxo-1,2-dihydroquinazolin-3(4H)-yl)piperidin-1-yl)ethyl)-9-(pyridin-4-ylmethyl)-6,7,9,10-tetrahydroazepino[3,4-e]indazol-8(3H)-one]
[1]
  IC50: 0.1 to 10 nM
[2]
  IC50: 0.1 to 10 nM

## O=C(C[C@@H]1Cc2cc(Cl)c3[nH]ncc3c2CN(Cc2ccncc2)C1=O)N1CCC(N2Cc3cccc(F)c3NC2=O)CC1 [Example 50, (S)-4-Chloro-7-(2-(4-(8-fluoro-2-oxo-1,2-dihydroquinazolin-3(4H)-yl)piperidin-1-yl)-2-oxoethyl)-9-(pyridin-4-ylmethyl)-6,7,9,10-tetrahydroazepino[3,4-e]indazol-8(3H)-one]
[1]
  IC50: 0.1 to 10 nM
[2]
  IC50: 0.1 to 10 nM

## O=C(C[C@@H]1Cc2cc(Cl)c3[nH]ncc3c2CN(Cc2ccncc2)C1=O)N1CCC(c2cc3ccccc3[nH]c2=O)CC1 [Example 52, (S)-4-Chloro-7-(2-oxo-2-(4-(2-oxo-1,2-dihydroquinolin-3-yl)piperidin-1-yl)ethyl)-9-(pyridin-4-ylmethyl)-6,7,9,10-tetrahydroazepino[3,4-e]indazol-8(3H)-one]
[1]
  IC50: 0.1 to 10 nM
[2]
  IC50: 0.1 to 10 nM

## O=C(C[C@@H]1Cc2cc(Cl)c3[nH]ncc3c2CN(Cc2ccncc2)C1=O)N1CCC(n2cc(-c3ccccc3)[nH]c2=O)CC1 [Example 53, (S)-4-Chloro-7-(2-oxo-2-(4-(2-oxo-4-phenyl-2,3-dihydroimidazol-1-yl)piperidin-1-yl)ethyl)-9-(pyridin-4-ylmethyl)-6,7,9,10-tetrahydroazepino[3,4-e]indazol-8(3H)-one]
[1]
  IC50: 0.1 to 10 nM
[2]
  IC50: 0.1 to 10 nM

## O=C(C[C@@H]1Cc2cc(Cl)c3[nH]ncc3c2CN(Cc2ncc[nH]2)C1=O)N1CCC(N2Cc3ccccc3NC2=O)CC1 [Example 54, (S)-9-((1H-Imidazol-2-yl)methyl)-4-chloro-7-(2-oxo-2-(4-(2-oxo-1,2-dihydroquinazolin-3(4H)-yl)piperidin-1-yl)ethyl)-6,7,9,10-tetrahydroazepino[3,4-e]indazol-8(3H)-one]
[1]
  IC50: 0.1 to 10 nM
[2]
  IC50: 0.1 to 10 nM

## CC(C)(C)CN1Cc2c(cc(Cl)c3[nH]ncc23)C[C@@H](CC(=O)N2CCC(c3cc4cnccc4[nH]c3=O)CC2)C1=O [Example 80, 1-[[(7S)-4-chloro-9-(2,2-dimethylpropyl)-3,6,7,8,9,10-hexahydro-8-oxoazepino[3,4-e]indazol-7-yl]acetyl]-4-(1,2-dihydro-2-oxo-1,6-naphthyridin-3-yl)-piperidine]
[1]
  IC50: 10 to 100 nM
[2]
  IC50: 10 to 100 nM

## O=C(C[C@@H]1Cc2cc(Cl)c3[nH]ncc3c2CN(Cc2ccncc2)C1=O)N1CCC(c2cc3ccccc3cn2)CC1 [Example 85, (S)-4-chloro-7-(2-(4-(isoquinolin-3-yl)piperidin-1-yl)-2-oxoethyl)-9-(pyridin-4-ylmethyl)-6,7,9,10-tetrahydroazepino[3,4-e]indazol-8(3H)-one]
[1]
  IC50: 10 to 100 nM
[2]
  IC50: 10 to 100 nM

From patent US7384931B2, “Constrained compounds as CGRP-receptor antagonists” (Bristol-Myers Squibb Company, priority 2004, dated 2008)
